Assay results published in patent US9290453B2 (Merck Sharp & Dohme Corp., priority 2010, dated 2016).

The compounds below were run against T1, hCRTH2 (Homo sapiens, UniProt Q9Y5Y4) (assay: Radioligand Binding Assay A ([3H]PGD2 filtration binding, HEK-hCRTH2 membranes)). Conditions: Table A, rated A-D.
T1 construct: expressed in transfected cells; host or cells: HEK (human embryonic kidney) cells expressing hCRTH2
T1 sequence (Q9Y5Y4 1-395): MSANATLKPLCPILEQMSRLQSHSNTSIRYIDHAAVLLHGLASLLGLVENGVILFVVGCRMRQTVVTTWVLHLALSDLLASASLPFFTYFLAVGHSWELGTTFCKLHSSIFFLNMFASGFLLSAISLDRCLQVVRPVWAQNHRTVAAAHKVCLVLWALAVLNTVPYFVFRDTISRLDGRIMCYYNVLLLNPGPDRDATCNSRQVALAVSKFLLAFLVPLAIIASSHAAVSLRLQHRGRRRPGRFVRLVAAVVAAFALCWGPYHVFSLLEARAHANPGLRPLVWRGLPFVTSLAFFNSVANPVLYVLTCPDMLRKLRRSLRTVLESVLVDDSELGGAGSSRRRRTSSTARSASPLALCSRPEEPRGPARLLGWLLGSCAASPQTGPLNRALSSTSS
Protocol: Radioligand binding assays were performed at room temperature in 50 mM Tris-HCl pH 7.4, 1 mM EDTA containing 2 mM MnCl2 and 3.0 nM [^3H]PGD2 (New England Nuclear, Boston, Mass.) (171 Ci mmol^−1), in a final volume of 0.2 ml. Competing ligands were diluted in dimethylsulfoxide (Me2SO) that was kept constant at 1% (v/v) of the final incubation volume. The reaction was initiated by the addition of 8-20 μg of membrane protein prepared from a human embryonic kidney (HEK)-hCRTH2 cell line. Total and non-specific binding were determined in the absence and the presence of 10 μM PGD2, respectively. Under these conditions, specific binding (total minus non-specific) of the radioligand to the receptor reached equilibrium within 50 min and was stable up to 180 min. The reaction was routinely conducted for 60 min at room temperature and terminated by rapid filtration through prewetted (0.3% polyethyleneimine) 96-well printed Filtermate™ (Wallac) using a Tomtec® harvester (Hamden, Conn.). After washing with cold buffer, the filter was dried for 2 minutes in microwave, and Meltilex Scintillator sheet (Wallac) was melted on for 2 min. The radioactivity was measured with Betaplate model 1205 (Wallac).

| Structure (SMILES) | Ki |
| --- | --- |
| C[C@@H](NC(=O)c1ccc2nc(-c3ccccc3)c(CCCCC(=O)O)cc2c1)c1ccccc1 [Compound 1S, 2-phenyl-6-[[(l(R)-phenylethyl)amino]carbonyl]-3-quinolinepentanoic acid] | 2.1 to 20 nM |
| C[C@@H](NC(=O)c1cnc2nc(-c3ccc(F)cc3)c(CCCCC(=O)O)cc2c1)c1ccc(Cl)cc1 [Compound 6, 6-[[[1(R)-(4-chlorophenyl)ethyl]amino]carbonyl]-2-(4-fluorophenyl)-1,8-naphthyridine-3-pentanoic acid] | 20.1 to 200 nM |
| O=C(O)CCCCc1cc2cc(C(=O)NCc3ccc(C(F)(F)F)cc3)ccc2nc1-c1ccccc1 [Compound 1F, 2-phenyl-6-[[[[4-(trifluoromethyl)phenyl]methyl]amino]carbonyl]-3-quinolinepentanoic acid] | 2.1 to 20 nM |
| C[C@H](NC(=O)c1ccc2nc(-c3ccccc3)c(CCCCC(=O)O)cc2c1)c1ccc(Cl)cc1 [Compound 1AE, 6-[[[1(S)-(4-chlorophenyl)ethyl]amino]carbonyl]-2-phenyl-3-quinolinepentanoic acid] | 2.1 to 20 nM |
| O=C(O)CCCCc1cc2cc(C(=O)OCc3ccccc3)ccc2nc1-c1ccccc1 [Compound 2D, 2-phenyl-6-[(phenylmethoxy)carbonyl]-3-quinolinepentanoic acid] | 0.1 to 2 nM |
| O=C(O)CCCCc1cc2cc(C(=O)N3CC[C@@H](c4ccccc4)C3)ccc2nc1-c1ccccc1 [Compound 1i, 2-phenyl-6-[(3(S)-phenyl-1-pyrrolidinyl)carbonyl]-3-quinolinepentanoic acid] | 2.1 to 20 nM |
| O=C(O)CCCCc1cc2cc(C(=O)NC3Cc4ccccc4C3)ccc2nc1-c1ccccc1 [Compound 1Q, 6-[[(2,3-dihydro-1H-inden-2-yl)amino]carbonyl]-2-phenyl-3-quinolinepentanoic acid] | 2.1 to 20 nM |
| O=C(O)CCCCc1nc2cc(C(=O)NCc3cccc(Cl)c3)ccc2cc1-c1ccccc1 [Compound 4, 5-(7-(3-chlorobenzylcarbamoyl)-3-phenylquinolin-2-yl)pentanoic acid] | 0.1 to 2 nM |
| CCCCCCCCCNC(=O)c1ccc2nc(-c3ccccc3)c(CCCCC(=O)O)cc2c1 [Compound 1AC, 6-[(nonylamino)carbonyl]-2-phenyl-3-quinolinepentanoic acid] | 2.1 to 20 nM |
| O=C(O)CCCCc1nc2cc(C(=O)N3CCC[C@H](c4ccccc4)C3)ccc2cc1-c1ccccc1 [Compound 3K, 3-phenyl-7-[(3(R)-phenyl-1-piperidinyl)carbonyl]-2-quinolinepentanoic acid] | 2.1 to 20 nM |
| O=C(O)CCCCc1cc2cc(C(=O)NCc3cccnc3)ccc2nc1-c1ccccc1 [Compound 1X, 2-phenyl-6-[[(3-pyridinylmethyl)amino]carbonyl]-3-quinolinepentanoic acid] | 20.1 to 200 nM |
| O=C(O)CCCCc1cc2cc(C(=O)NCc3cccc(Cl)c3)ccc2nc1-c1ccccc1 [Compound 1D, 6-[[[(3-chlorophenyl)methyl]amino]carbonyl]-2-phenyl-3-quinolinepentanoic acid] | 2.1 to 20 nM |
| O=C(O)CCCCc1cc2cc(C(=O)NCc3ccc(Cl)cc3)ccc2nc1-c1ccccc1 [Compound 2B, 6-[[[(4-chlorophenyl)methyl]amino]carbonyl]-2-phenyl-3-quinolinepentanoic acid] | 2.1 to 20 nM |
| O=C(O)CCCCc1nc2cc(C(=O)N3CC[C@H](c4ccccc4)C3)ccc2cc1-c1ccccc1 [Compound 3i, 3-phenyl-7-[(3(R)-phenyl-1-pynolidinyl)carbonyl]-2-quinolinepentanoic acid] | 2.1 to 20 nM |
| C[C@H](NC(=O)c1ccc2cc(-c3ccccc3)c(CCCCC(=O)O)nc2c1)c1ccc(Cl)cc1 [Compound 3G, 7-[[[1(S)-(4-chlorophenyl)ethyl]amino]carbonyl]-3-phenyl-2-quinolinepentanoic acid] | 2.1 to 20 nM |
| O=C(O)CCCCc1cc2cc(C(=O)N3CCC[C@H](c4ccccc4)C3)ccc2nc1-c1ccccc1 [Compound 1L, 2-phenyl-6-[(3(R)-phenyl-1-piperidinyl)carbonyl]-3-quinolinepentanoic acid] | 2.1 to 20 nM |

Continued, values first:

| Ki | Structure (SMILES) |
| --- | --- |
| 20.1 to 200 nM | O=C(O)CCCCc1cc2cc(C(=O)N[C@H]3CCCc4cc(Cl)ccc43)cnc2nc1-c1ccc(F)cc1 [Compound 6N, 6-[[(6-chloro-1,2,3,4-tetrahydro-1(S)-naphthalenyl)amino]carbonyl]-2-(4-fluorophenyl)-1,8-naphthyridine-3-pentanoic acid] |
| 2.1 to 20 nM | C[C@@H](NC(=O)c1ccc2nc(-c3ccc(F)cc3)c(CCCCC(=O)O)cc2c1)c1cc(Cl)cc(Cl)c1 [Compound 5X, 6-[[[1(R)-(3,5-dichlorophenyl)ethyl]amino]carbonyl]-2-(4-fluorophenyl)-3-quinolinepentanoic acid] |
| 2.1 to 20 nM | O=C(O)CCCCc1cc2cc(C(=O)NC(c3ccccc3)c3ccccc3)ccc2nc1-c1ccc(F)cc1 [Compound 5AA, 5-(6-(benzhydrylcarbamoyl)-2-(4-fluorophenyl)quinolin-3-yl)pentanoic acid] |
| 2.1 to 20 nM | O=C(O)CCCCc1cc2cc(C(=O)N[C@@H](c3cc(Cl)cc(Cl)c3)C(F)(F)F)cnc2nc1-c1ccc(F)cc1 [Compound 6R, 6-[[[1(S)-(3,5-dichlorophenyl)-2,2,2-trifluoroethyl]amino]carbonyl]-2-(4-fluorophenyl)-1,8-naphthyridine-3-pentanoic acid] |
| 2.1 to 20 nM | C[C@H](NC(=O)c1ccc2nc(-c3ccc(F)cc3)c(CCCCC(=O)O)cc2c1)c1ccc(Cl)cc1 [Compound 5i] |
| 20.1 to 200 nM | C[C@@H](NC(=O)c1cnc2nc(-c3ccc(F)cc3)c(CCCCC(=O)O)cc2c1)c1ccc(F)cc1 [Compound 6D, 2-(4-fluorophenyl)-6-[[[1(R)-(4-fluorophenyl)ethyl]amino]carbonyl]-1,8-naphthyridine-3-pentanoic acid] |
| 2.1 to 20 nM | C[C@@H](NC(=O)c1ccc2nc(-c3ccc(F)cc3)c(CCCCC(=O)O)cc2c1)c1ccc(F)cc1 [Compound 5D, 2-(4-fluorophenyl)-6-[[[1(R)-(4-fluorophenyl)ethyl]amino]carbonyl]-3-quinolinepentanoic acid] |
| 20.1 to 200 nM | CN(Cc1cccc(C(F)(F)F)c1)C(=O)c1ccc2nc(-c3ccc(F)cc3)c(CCCCC(=O)O)cc2c1 [Compound 5W, 2-(4-fluorophenyl)-6-[[methyl[[3-(trifluoromethyl)phenyl]methyl]amino]carbonyl]-3-quinolinepentanoic acid] |
| 20.1 to 200 nM | COc1ccc([C@@H](NC(=O)c2cnc3nc(-c4ccc(F)cc4)c(CCCCC(=O)O)cc3c2)C(F)(F)F)cc1 [Compound 6i, 2-(4-fluorophenyl)-6-[[[2,2,2-trifluoro-1(R)-(4-methoxyphenyl)ethyl]amino]carbonyl]-1,8-naphthyridine-3-pentanoic acid] |
| 2.1 to 20 nM | C[C@H](NC(=O)c1ccc2nc(-c3ccc(F)cc3)c(CCCCC(=O)O)cc2c1)c1ccc(F)cc1 [Compound 5J, 2-(4-fluorophenyl)-6-[[[1(S)-(4-fluorophenyl)ethyl]amino]carbonyl]-3-quinolinepentanoic acid] |
| 2.1 to 20 nM | O=C(O)CCCCc1cc2cc(C(=O)N[C@H](c3cc(Cl)cc(Cl)c3)C(F)(F)F)cnc2nc1-c1ccc(F)cc1 [Compound 6Q, 6-[[[1(R)-(3,5-dichlorophenyl)-2,2,2-trifluoroethyl]amino]carbonyl]-2-(4-fluorophenyl)-1,8-naphthyridine-3-pentanoic acid] |
| 2.1 to 20 nM | O=C(O)CCCCc1cc2cc(C(=O)N[C@H]3CCCc4cc(Cl)ccc43)ccc2nc1-c1ccc(F)cc1 [Compound 5S, 6-[[(6-chloro-1,2,3,4-tetrahydro-1(S)-naphthalenyl)amino]carbonyl]-2-(4-fluorophenyl)-3-quinolinepentanoic acid] |
| 20.1 to 200 nM | O=C(O)CCCCc1cc2cc(C(=O)N[C@H]3CCCc4ccc(F)cc43)cnc2nc1-c1ccc(F)cc1 [Compound 6o, 2-(4-fluorophenyl)-6-[[(7-fluoro-1,2,3,4-tetrahydro-1(S)-naphthalenyl)amino]carbonyl]-1,8-naphthyridine-3-pentanoic acid] |
| 20.1 to 200 nM | O=C(O)CCCCc1cc2cc(C(=O)N[C@H]3CCc4ccc(F)cc43)cnc2nc1-c1ccc(F)cc1 [Compound 6M, 6-[[(6-fluoro-2,3-dihydro-1H-inden-1(S)-yl)amino]carbonyl]-2-(4-fluorophenyl)-1,8-naphthyridine-3-pentanoic acid] |
| 2.1 to 20 nM | CN(Cc1ccc(C(F)(F)F)cc1)C(=O)c1ccc2nc(-c3ccc(F)cc3)c(CCCCC(=O)O)cc2c1 [Compound 5V, 2-(4-fluorophenyl)-6-[[methyl[[4-(trifluoromethyl)phenyl]methyl]amino]carbonyl]-3-quinolinepentanoic acid] |
| 20.1 to 200 nM | O=C(O)CCCCc1cc2cc(C(=O)N[C@@H]3CCc4ccc(F)cc43)cnc2nc1-c1ccc(F)cc1 [Compound 6F, 6-[[(6-fluoro-2,3-dihydro-1H-inden-1(R)-yl)amino]carbonyl]-2-(4-fluorophenyl)-1,8-naphthyridine-3-pentanoic acid] |

Same assay, conditions: values in text

| Ki | Structure (SMILES) |
| --- | --- |
| 5.4 nM | C[C@@H](NC(=O)c1ccc2nc(-c3ccc(F)cc3)c(CCCCC(=O)O)cc2c1)c1cc(Cl)cc(Cl)c1 [Compound 5X, 6-[[[1(R)-(3,5-dichlorophenyl)ethyl]amino]carbonyl]-2-(4-fluorophenyl)-3-quinolinepentanoic acid] |
| 28.9 nM | O=C(O)CCCCc1cc2cc(C(=O)NCc3cccnc3)ccc2nc1-c1ccccc1 [Compound 1X, 2-phenyl-6-[[(3-pyridinylmethyl)amino]carbonyl]-3-quinolinepentanoic acid] |
